Literature values, collected in US20060099690A1, “Extraction, purification and conversion of flavonoids from plant biomass” (Her Majesty the Queen in Right of Canada, as Repre, priority 2002, published 2006).

Tests used:
[1] = tested on: mouse hippocampal cell line HT-22 and rat primary neurons; conditions: HT-22 cells and rat primary neurons
[2] = four hours after a meal; hydrolyzed plasma; 3'- and 4'-methylquercetin
serum triglycerides = conditions: 0.5% quercetin in diet; mice or rats
pain transmission = conditions: antinociceptive activity

SMILES | protection from oxidative stress caused by glutamate [1] | total concentration of metabolites in the plasma [2] | effect on serum triglycerides (serum triglycerides) | dose with the same effect as 2.5 mg of morphine sulfate/Kg (pain transmission) [mg/Kg body weight]
O=c1cc(-c2ccc(O)cc2)oc2cc(O)cc(O)c12 [apigenim] | inactive |  |  | 
O=c1c(O)c(-c2ccc(O)c(O)c2)oc2cc(O)ccc12 [fisetin] | quite protective |  |  | 
O=c1c(O[C@@H]2O[C@H](CO)[C@@H](O)[C@H](O)[C@H]2O)c(-c2ccc(O)c(O)c2)oc2cc(O)cc(O)c12 [isoquercitrin, quercetin-3-O-beta glycoside] |  | 33.2 µM |  | 
O=c1c(O)c(-c2ccc(O)cc2)oc2cc(O)cc(O)c12 [kaempferol] | quite protective |  |  | 
O=c1c(O)c(-c2ccc(O)c(O)c2)oc2cc(O)cc(O)c12 [quercetin] | quite protective | 11.2 µM | significant lowering | 50
C[C@@H]1O[C@@H](Oc2c(-c3ccc(O)c(O)c3)oc3cc(O)cc(O)c3c2=O)[C@H](O)[C@H](O)[C@H]1O [quercitrin, quercetin 3-rhamnoside, reference compound] |  | failed to detect any metabolites |  | 
C[C@@H]1O[C@@H](OC[C@H]2O[C@@H](Oc3c(-c4ccc(O)c(O)c4)oc4cc(O)cc(O)c4c3=O)[C@H](O)[C@@H](O)[C@@H]2O)[C@H](O)[C@H](O)[C@H]1O [rutin] |  | 2.5 µM |  | 
